Measured values from patent EP4473961A1, “ORAL SOLID PHARMACEUTICAL FORMULATION COMPRISING METHADONE/LEVOMETHADONE AND OPTIONALLY NALOXONE” (L. MOLTENI & C. DEI FRATELLI ALITTI SOCIETA' DI ESERCIZIO …, priority 2023, dated 2024).

System: crisis of withdrawal from morphine
Conditions: rat, in vivo

Q: Which “effect on withdrawal symptoms” value does the source give for `CCC(=O)C(CC(C)N(C)C)(c1ccccc1)c1ccccc1` (centres unmarked) [methadone] here?
A: significantly reduced the symptoms

Q: What about the “values of the scores relative to the group treated with morphine alone” value of the same compound?
A: about 50%
